Laboratory results as given in PubChem BioAssay (NCI).
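Where inhibition never reached the appropriate level, the endpoint shown equals the highest concentration tested. Otherwise, values were interpolated linearly from a five-concentration, 48-hour dose response in 96-well plates. GI50 is the concentration that inhibits growth by half. The concentration for full growth arrest is given as TGI.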

Tests used:
Assay in all cases: NCI anticancer screen, dose series, 48 h
[1] = system: 786-0 renal
[2] = system: A498 renal
[3] = system: A549 NSCLC
[4] = system: ACHN renal
[5] = system: BT-549 breast
[6] = system: CAKI-1 renal
[7] = system: CCRF-CEM leukemia
[8] = system: COLO 205 colon
[9] = system: DU-145 prostate
[10] = system: EKVX NSCLC
[11] = system: HCC-2998 colon
[12] = system: HCT-116 colon
[13] = system: HCT-15 colon
[14] = system: HL-60(TB) leukemia
[15] = system: HOP-62 NSCLC
[16] = system: HOP-92 NSCLC
[17] = system: HS 578T breast
[18] = system: HT29 colon
[19] = system: IGROV1 ovarian
[20] = system: K-562 leukemia
[21] = system: KM12 colon
[22] = system: LOX IMVI melanoma
[23] = system: M14 melanoma
[24] = system: MALME-3M melanoma
[25] = system: MCF7 breast
[26] = system: MDA-MB-231 breast
[27] = system: MDA-MB-435
[28] = system: MDA-MB-468 breast
[29] = system: MOLT-4 leukemia
[30] = system: NCI-H226 lung
[31] = system: NCI-H23 lung
[32] = system: NCI-H460 lung
[33] = system: NCI-H522 lung
[34] = system: NCI/ADR-RES ovarian
[35] = system: OVCAR-3 ovarian
[36] = system: OVCAR-4 ovarian
[37] = system: OVCAR-5 ovarian
[38] = system: OVCAR-8 ovarian
[39] = system: PC-3 prostate
[40] = system: RPMI-8226 leukemia
[41] = system: RXF 393 renal
[42] = system: SF-268 CNS
[43] = system: SF-295 CNS
[44] = system: SF-539 CNS
[45] = system: SK-MEL-2 melanoma
[46] = system: SK-MEL-28 melanoma
[47] = system: SK-MEL-5 melanoma
[48] = system: SK-OV-3 ovarian
[49] = system: SN12C renal
[50] = system: SNB-19 CNS
[51] = system: SNB-75 CNS
[52] = system: SR leukemia
[53] = system: SW-620 colon
[54] = system: T-47D breast
[55] = system: TK-10 renal
[56] = system: U251 CNS
[57] = system: UACC-257 melanoma
[58] = system: UACC-62 melanoma
[59] = system: UO-31 renal

`CCOc1ccc(-c2cc(-c3cc(C(C)C)c(O)cc3C)nn2-c2ccc(S(N)(=O)=O)cc2)cc1` was tested, and the GI50 [1] was 11.2 µM, the TGI [1] was 23.3 µM and the GI50 [2] was 13.4 µM. The TGI [2] was 26.4 µM, the GI50 [3] was 4.62 µM and the TGI [3] was 19.2 µM. It also gave a GI50 [4] of 10.5 µM, a TGI [4] of 22.3 µM and a GI50 [5] of 2.93 µM. The TGI [5] was 11.4 µM, the GI50 [6] was 4.92 µM and the TGI [6] was 18 µM. The GI50 [7] was 2.86 µM, the TGI [7] was 13.8 µM and the GI50 [8] was 17.1 µM. The TGI [8] was 31.7 µM, the GI50 [9] was 7.07 µM and the TGI [9] was 19.9 µM. The GI50 [10] was 3.96 µM, the TGI [10] was 15.2 µM and the GI50 [11] was 3.87 µM. The TGI [11] was 12.7 µM, the GI50 [12] was 5.46 µM and the TGI [12] was 18.2 µM. It also gave a GI50 [13] of 3.61 µM, a TGI [13] of 14.4 µM and a GI50 [14] of 4.81 µM. For the same compound, the TGI [14] was 37.3 µM, the GI50 [15] was 10.4 µM and the TGI [15] was 23.4 µM. It also gave a GI50 [16] of 2.82 µM, a TGI [16] of 13 µM and a GI50 [17] of 5.8 µM. The TGI [17] was 25.9 µM, the GI50 [18] was 15.4 µM and the TGI [18] was 29.5 µM. The GI50 [19] was 12.1 µM, the TGI [19] was 24.9 µM and the GI50 [20] was 3.38 µM. The TGI [20] was > 100 µM, the GI50 [21] was 3.47 µM and the TGI [21] was 13.4 µM. For the same compound, the GI50 [22] was 5.65 µM, the TGI [22] was 18.3 µM and the GI50 [23] was 9.86 µM. It also gave a TGI [23] of 22.4 µM, a GI50 [24] of 11 µM and a TGI [24] of 23.4 µM. For the same compound, the GI50 [25] was 4.88 µM, the TGI [25] was 19.2 µM and the GI50 [26] was 6.78 µM. For the same compound, the TGI [26] was 20.3 µM, the GI50 [27] was 1.91 µM and the TGI [27] was 4.44 µM. The GI50 [28] was 2.39 µM, the TGI [28] was 6.76 µM and the GI50 [29] was 4.02 µM. The TGI [29] was 17.6 µM, the GI50 [30] was 15.7 µM and the TGI [30] was 37 µM. It also gave a GI50 [31] of 6.86 µM, a TGI [31] of 20.5 µM and a GI50 [32] of 5.21 µM. It also gave a TGI [32] of 18.1 µM, a GI50 [33] of 2.75 µM and a TGI [33] of 11 µM. For the same compound, the GI50 [34] was 3.15 µM, the TGI [34] was 12.2 µM and the GI50 [35] was 4.55 µM. For the same compound, the TGI [35] was 15.3 µM, the GI50 [36] was 7.29 µM and the TGI [36] was 21 µM. For the same compound, the GI50 [37] was 15.7 µM, the TGI [37] was 29.2 µM and the GI50 [38] was 7.24 µM. For the same compound, the TGI [38] was 21.6 µM, the GI50 [39] was 5.47 µM and the TGI [39] was 19.6 µM. For the same compound, the GI50 [40] was 4.29 µM, the TGI [40] was 22.2 µM and the GI50 [41] was 4.45 µM. It also gave a TGI [41] of 17.2 µM, a GI50 [42] of 7.22 µM and a TGI [42] of 21.4 µM. For the same compound, the GI50 [43] was 9.37 µM, the TGI [43] was 21.3 µM and the GI50 [44] was 5.51 µM. It also gave a TGI [44] of 17.7 µM, a GI50 [45] of 7.28 µM and a TGI [45] of 20.8 µM. It also gave a GI50 [46] of 11.7 µM, a TGI [46] of 24 µM and a GI50 [47] of 5.3 µM. The TGI [47] was 17.8 µM, the GI50 [48] was 10.7 µM and the TGI [48] was 22.7 µM. For the same compound, the GI50 [49] was 6.66 µM, the TGI [49] was 20.1 µM and the GI50 [50] was 12.3 µM. It also gave a TGI [50] of 24.8 µM, a GI50 [51] of 2.48 µM and a TGI [51] of 13 µM. It also gave a GI50 [52] of 1.8 µM, a TGI [52] of 43.8 µM and a GI50 [53] of 5.94 µM. The TGI [53] was 20 µM, the GI50 [54] was 3.71 µM and the TGI [54] was 17 µM. For the same compound, the GI50 [55] was 15.6 µM, the TGI [55] was 29.1 µM and the GI50 [56] was 5.29 µM. The TGI [56] was 18.6 µM, the GI50 [57] was 10.4 µM and the TGI [57] was 22.5 µM. The GI50 [58] was 7.25 µM, the TGI [58] was 20.4 µM and the GI50 [59] was 5.46 µM. For the same compound, the TGI [59] was 18.3 µM.

Compound `CCc1ccccc1-c1nc(CN[C@@H]2C[C@@H]3C[C@H]([C@H]2C)C3(C)C)c(C)o1` has a GI50 [1] of 1.71 µM, a TGI [1] of 3.5 µM and a GI50 [2] of 1.54 µM. The TGI [2] was 2.95 µM, the GI50 [3] was 1.88 µM and the TGI [3] was 4.03 µM. It also gave a GI50 [4] of 1.77 µM, a TGI [4] of 3.18 µM and a GI50 [5] of 1.71 µM. The TGI [5] was 3.17 µM, the GI50 [6] was 1.83 µM and the TGI [6] was 3.81 µM. For the same compound, the GI50 [7] was 3.25 µM, the TGI [7] was 10.6 µM and the GI50 [8] was 1.85 µM. The TGI [8] was 3.95 µM, the GI50 [9] was 2.03 µM and the TGI [9] was 4.26 µM. It also gave a GI50 [10] of 2.58 µM, a TGI [10] of 7.01 µM and a GI50 [11] of 1.65 µM. It also gave a TGI [11] of 3.07 µM, a GI50 [12] of 1.74 µM and a TGI [12] of 3.3 µM. For the same compound, the GI50 [13] was 1.72 µM, the TGI [13] was 3.15 µM and the GI50 [14] was 2.43 µM. The TGI [14] was 6.73 µM, the GI50 [15] was 1.65 µM and the TGI [15] was 3.28 µM. For the same compound, the GI50 [16] was 1.37 µM, the TGI [16] was 2.85 µM and the GI50 [17] was 1.83 µM. For the same compound, the TGI [17] was 4.16 µM, the GI50 [18] was 1.73 µM and the TGI [18] was 3.4 µM. For the same compound, the GI50 [19] was 1.7 µM, the TGI [19] was 3.26 µM and the GI50 [20] was 2.34 µM. The TGI [20] was 6.54 µM, the GI50 [21] was 1.85 µM and the TGI [21] was 3.57 µM. For the same compound, the GI50 [22] was 1.66 µM, the TGI [22] was 3.02 µM and the GI50 [23] was 1.62 µM. For the same compound, the TGI [23] was 3.12 µM, the GI50 [24] was 1.49 µM and the TGI [24] was 2.84 µM. For the same compound, the GI50 [25] was 1.65 µM, the TGI [25] was 3.18 µM and the GI50 [26] was 1.7 µM. It also gave a TGI [26] of 3.12 µM, a GI50 [27] of 1.67 µM and a TGI [27] of 3.11 µM. It also gave a GI50 [28] of 1.5 µM, a TGI [28] of 2.87 µM and a GI50 [29] of 2.23 µM. The TGI [29] was 5.72 µM, the GI50 [30] was 2.11 µM and the TGI [30] was 5 µM. The GI50 [31] was 1.96 µM, the TGI [31] was 4.38 µM and the GI50 [32] was 1.72 µM. It also gave a TGI [32] of 3.16 µM, a GI50 [33] of 1.61 µM and a TGI [33] of 3.22 µM. It also gave a GI50 [34] of 1.76 µM, a TGI [34] of 3.61 µM and a GI50 [35] of 1.61 µM. For the same compound, the TGI [35] was 2.96 µM, the GI50 [36] was 2.53 µM and the TGI [36] was 8.36 µM. The GI50 [37] was 1.59 µM, the TGI [37] was 3.04 µM and the GI50 [38] was 1.7 µM. For the same compound, the TGI [38] was 3.24 µM, the GI50 [39] was 1.8 µM and the TGI [39] was 4.38 µM. The GI50 [40] was 2.19 µM, the TGI [40] was 5.27 µM and the GI50 [42] was 2.58 µM. The TGI [42] was 11 µM, the GI50 [43] was 1.72 µM and the TGI [43] was 3.17 µM. For the same compound, the GI50 [44] was 1.8 µM, the TGI [44] was 3.18 µM and the GI50 [45] was 2.55 µM. For the same compound, the TGI [45] was 7.34 µM, the GI50 [46] was 1.72 µM and the TGI [46] was 3.11 µM. It also gave a GI50 [47] of 1.77 µM, a TGI [47] of 3.15 µM and a GI50 [48] of 14.2 µM. The TGI [48] was 28.9 µM, the GI50 [49] was 1.68 µM and the TGI [49] was 3.13 µM. For the same compound, the GI50 [50] was 1.77 µM, the TGI [50] was 3.4 µM and the GI50 [51] was 12 µM. The TGI [51] was 24.4 µM, the GI50 [52] was 2.11 µM and the TGI [52] was 5.33 µM. The GI50 [53] was 1.69 µM, the TGI [53] was 3.2 µM and the GI50 [54] was 1.73 µM. The TGI [54] was 3.81 µM, the GI50 [55] was 2.01 µM and the TGI [55] was 5.08 µM. The GI50 [56] was 1.6 µM, the TGI [56] was 3.06 µM and the GI50 [57] was 1.66 µM. For the same compound, the TGI [57] was 3.23 µM, the GI50 [58] was 1.69 µM and the TGI [58] was 3.19 µM. The GI50 [59] was 2.13 µM and the TGI [59] was 8.45 µM.
